Reference: US20050020553A1, “Prevention of miscarriage with immunomodulating non-endogenous gestagen compounds” (Solvay Pharmaceuticals GmbH, priority 2001, published 2005)

How the values were obtained:
[1] = system: peripheral blood mononuclear cells (=PBMC); test: Mitogen-induced stimulation of PBMC from women with unexplained habitual abortion, cytokine levels by ELISA; assay type: cell-based, human (women); settings: for levels of IL-4 / levels of IL-6 / production of the Th1 cytokine IFN-gamma: PHA-stimulated PBMC from women with unexplained habitual abortion, 96 hours in culture, ELISA
Text: The effects of dydrogesterone on Th1 and Th2 cytokine profiles produced by mitogen-stimulated peripheral blood mononuclear cells (=PBMC) were established. The effects of dydrogesterone on Th1 and Th2 cytokine production were investigated in peripheral blood lymphocytes from women with unexplained habitual abortion. The peripheral mononuclear cells were stimulated with mitogen (phytohaemagglutinin) in vitro, in the presence and absence of dydrogesterone. The levels of cytokines secreted were measured after 96 hours in culture. […] Several studies have pointed to a deviation of cytokine profiles in women when during pregnancy. Pregnancy is associated with a shift towards Th2 bias, evinced by changes in peripheral T cells, by cytokine production by peripheral lymphocytes and by cytokine changes at the maternal-fetal interface. Unexplained recurrent spontaneous abortion (URSA) seems to be associated with a stronger bias towards Th1 cytokines. Women who have earlier been gone through URSA may therefore be regarded as a pre-selected group of patients that will typically respond to an immunological stimulation by showing a Th1 dominated pattern of immune response. The pharmacological test was therefore performed with a suitable URSA group which comprised of women admitted with spontaneous abortion for evacuation, (i) who have had at least two previous unexplained miscarriages, (ii) who were currently undergoing at least a 3rd abortion and (iii) who had been fully investigated. The relationship between habitual abortion and cytokine production response in 54 women with normal pregnancy (and at least 3 previous normal pregnancies) and 23 women with a history of habitual abortion of unexplained aetiology (URSA group) has been investigated. Peripheral blood was obtained by venipuncture from the abortion group on the day of abortion. PBMC is separated by Ficoll-paque (Pharmacia Biotech, Sweden) density gradient centrifugation, suspended in RPMI medium (=“Roswell Park Memorial Institute”-medium; obtained from GIBCO/BRL, USA) containing 10% fetal calf serum, aliquoted into 96 well tissue culture plates at a density of 100.000 cells per well and then stimulated with the mitogen phytohemagglutinin (=PHA, Sigma Chemicals, USA) at a concentration of […] for a period of 96 hours, with autologous placental antigens or with trophoblast antigens. Progesterone, dydrogesterone (Duphaston®) and RU486 (=mifepristone) was added in different combinations as described below. Progesterone was tested at concentrations of […]. RU486 was tested at equivalent concentrations. Culture supernatants were harvested at 96 hours for determination of the levels of cytokines secreted by the PBMC into the supernatants. Cytokine levels were determined in the supernatants by enzyme-linked immunosorbent assay (=ELISA). Each sample was tested in the following manner: • PBMC+mitogen • PBMC+mitogen+progesterone • PBMC+mitogen+progesterone+RU486 • PBMC+mitogen+dydrogesterone • PBMC+mitogen+dydrogesterone+RU486 • PBMC+mitogen+Carrier • PBMC+mitogen+Carrier+RU486 Determination of cytokine levels by ELISA: Th1 cytokines TNF-α and IFN-γ, and Th2 cytokines IL-4, IL-6 and IL-10 were evaluated in these samples by ELISA using kits that were obtained from Immunotech SA, France. These consisted of “sandwich ELISA”. Briefly, the first step leads to the capture of the relevant cytokine by monoclonal anti-cytokine antibodies bound to the wells of microtiter plates. In the second step, a second biotinylated monoclonal is added together with streptavidin-enzyme (peroxidase or alkaline phosphatase) conjugate. The biotinylated antibody binds to the solid phase antibody-antigen complex, and in turn, binds the conjugate. After incubation the wells are washed and the binding of the streptavidin-enzyme via biotin is followed by the addition of a chromogenic substrate. The intensity of the coloration produced is proportional to the concentration of the cytokine in the sample. […]

pregnant mice = test: Murine stress-induced (ultrasound) abortion model; assay type: in vivo
Text: The results of the pharmacological test method given above can also be confirmed in an in vivo test model involving pregnant mice. […] Pregnant mice were exposed to ultrasound on day 5 of gestation. This stress increased the abortion rate of these mice from around 12% to 44%. Treatment with dydrogesterone reduced the abortion in a dose-related manner to as low as 5%.

[2] = in vivo; cited from earlier work
[3] = target: T1, human progesterone receptor (Homo sapiens, UniProt P06401); settings: cited from earlier work
T1 sequence (P06401 1-933): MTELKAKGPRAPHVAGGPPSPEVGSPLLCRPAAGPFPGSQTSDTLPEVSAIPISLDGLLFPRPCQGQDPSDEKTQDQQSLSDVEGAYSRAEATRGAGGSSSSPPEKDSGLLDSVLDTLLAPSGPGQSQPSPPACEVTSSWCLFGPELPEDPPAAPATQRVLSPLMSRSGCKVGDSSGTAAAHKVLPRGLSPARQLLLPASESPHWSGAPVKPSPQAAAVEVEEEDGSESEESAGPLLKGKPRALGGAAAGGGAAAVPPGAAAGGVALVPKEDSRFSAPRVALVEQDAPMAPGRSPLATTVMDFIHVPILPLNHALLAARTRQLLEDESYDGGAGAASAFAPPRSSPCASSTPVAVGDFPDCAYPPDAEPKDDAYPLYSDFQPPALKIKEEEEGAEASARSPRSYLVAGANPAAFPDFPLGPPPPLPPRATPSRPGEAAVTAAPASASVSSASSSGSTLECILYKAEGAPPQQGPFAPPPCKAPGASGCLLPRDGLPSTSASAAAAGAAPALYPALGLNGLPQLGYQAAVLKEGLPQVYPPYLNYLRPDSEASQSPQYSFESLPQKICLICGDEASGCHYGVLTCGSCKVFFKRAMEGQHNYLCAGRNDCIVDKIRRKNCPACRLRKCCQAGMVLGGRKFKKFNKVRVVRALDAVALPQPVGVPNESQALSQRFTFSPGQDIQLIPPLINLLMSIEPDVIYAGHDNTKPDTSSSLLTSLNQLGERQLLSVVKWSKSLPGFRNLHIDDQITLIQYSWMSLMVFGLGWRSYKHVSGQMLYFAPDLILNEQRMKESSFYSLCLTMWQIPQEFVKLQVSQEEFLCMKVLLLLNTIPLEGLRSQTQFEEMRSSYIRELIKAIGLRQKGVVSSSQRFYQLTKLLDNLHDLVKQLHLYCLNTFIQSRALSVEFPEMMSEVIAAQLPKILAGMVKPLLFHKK

[4] = system: Th1 cytokine production to trophoblast; settings: women with recurrent pregnancy loss; Choi et al., Human Reproduction 15/1 (2000); cited from earlier work
[5] = ex-vivo, women with spontaneous abortion and habitual abortion

SMILES	levels of IL-4 [1]	levels of IL-6 [1]	production of the Th1 cytokine IFN-gamma [1]	levels of IL-4 ([1]; listed as Dydrogesterone)	levels of IL-6 ([1]; listed as Dydrogesterone)	production of the Th1 cytokine IFN-gamma ([1]; listed as Dydrogesterone)	Th1/Th2 bias [1, 5]	activity of lymphocytes [1, 5]	release of progesterone induced blocking factor (PIBF) [1, 5]	Th1/Th2 cytokine production (pregnant mice; murine stress-induced abortion model)	level of IL-4 (pregnant mice; pregnant mice exposed to ultrasound on day 5 of gestation)	abortion rate (pregnant mice; pregnant mice exposed to ultrasound on day 5 of gestation, stress raised rate from around 12% to 44%, dose-related) [%]	androgenic effects in the mother (hirsutism, voice changes, acne) [2]	masculinizing effect on the female fetus [2]	selectivity as progesterone receptor agonist [3]	in-vitro embryotoxic Th1 cytokine production to trophoblast [4]
CC(=O)[C@H]1CC[C@H]2[C@@H]3C=CC4=CC(=O)CC[C@@]4(C)[C@@H]3CC[C@]12C [dydrogesterone]	marked increase	marked increase	reduction	increased	increased	strongly suppressed	shift from a Th1 towards a Th2 bias	reduced the activity of lymphocytes	increased release	shift from Th1 to Th2-cytokine production	increased level	≥ 5	no androgenic effects	no masculinizing effect	highly selective progesterone receptor agonist	–
CC(=O)[C@H]1CC[C@H]2[C@@H]3CCC4=CC(=O)CC[C@]4(C)[C@H]3CC[C@]12C [progesterone]	–	–	–	–	–	–	–	–	–	–	–	–	–	–	–	inhibits
